Source: ChEMBL document CHEMBL3525899, “Identification of the cytochrome P450 and other enzymes involved in the in vitro oxidative metabolism of a novel antidepressant, Lu AA21004” (Drug Metab Dispos, 2012)

Legend:
[1] = target: T1, Cytochrome P450 2A6 (Homo sapiens, UniProt P11509); experiment: (§1) Activity of human recombinant CYP2A6 expressed in microsomes isolated from human AHH-1 cells assessed as enzyme-mediated 1-(2-(2,4-dimethylphenylsulfinyl)phenyl)piperazine formation at 8 to 50 uM after 120 mins by HPLC/MS-MS analysis in presence of NADPH regenerating system with NADP+; format: ADME, cell-free; conditions: 2 h
T1 sequence (P11509 whole entry): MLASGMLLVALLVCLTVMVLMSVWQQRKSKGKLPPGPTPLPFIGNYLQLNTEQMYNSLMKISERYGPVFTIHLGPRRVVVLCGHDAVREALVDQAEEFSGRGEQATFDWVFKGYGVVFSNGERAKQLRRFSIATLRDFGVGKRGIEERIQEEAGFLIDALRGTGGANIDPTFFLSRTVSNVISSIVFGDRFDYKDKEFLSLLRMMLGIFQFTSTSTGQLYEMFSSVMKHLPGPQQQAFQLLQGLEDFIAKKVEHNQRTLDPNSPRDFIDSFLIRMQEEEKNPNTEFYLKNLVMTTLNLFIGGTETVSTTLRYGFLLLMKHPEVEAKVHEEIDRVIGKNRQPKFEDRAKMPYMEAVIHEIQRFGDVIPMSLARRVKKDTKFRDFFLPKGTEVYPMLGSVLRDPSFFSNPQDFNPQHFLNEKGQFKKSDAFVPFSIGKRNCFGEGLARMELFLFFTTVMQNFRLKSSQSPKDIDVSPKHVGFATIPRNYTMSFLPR

[2] = system: Liver microsome; experiment: Drug metabolism in pooled human liver microsomes assessed as formation of (3-methyl-4-(2-(piperazin-1-yl)phenylthio)phenyl)methanol per mg of protein after 30 mins by Michaelis-Menten plot analysis in presence of NADPH regenerating system with NADP+; format: ADME; conditions: 0.5 h
[3] = system: Liver microsome; experiment: Drug metabolism in pooled human liver microsomes assessed as formation of 1-(2-(2,4-dimethylphenylsulfinyl)phenyl)piperazine per mg of protein after 30 mins by Michaelis-Menten plot analysis in presence of NADPH regenerating system with NADP+; format: ADME; conditions: 0.5 h
[4] = target: Cytochrome P450 2C19 (Homo sapiens, UniProt P33261); experiment: (§2) Activity of human recombinant CYP2C19 expressed in microsomes isolated from human AHH-1 cells assessed as enzyme-mediated 3-(2,4-dimethylphenylthio)-4-(piperazin-1-yl)phenol formation at 8 to 50 uM after 120 mins by HPLC/MS-MS analysis in presence of NADPH regenerating system with NADP+; format: ADME, cell-free; conditions: 2 h
[5] = target: Cytochrome P450 3A4 (Homo sapiens, UniProt P08684); experiment: Activity of human recombinant CYP3A4 expressed in microsomes isolated from human AHH-1 cells assessed as enzyme-mediated 3-(2,4-dimethylphenylthio)-4-(piperazin-1-yl)phenol formation at 8 to 50 uM after 120 mins by HPLC/MS-MS analysis in presence of NADPH regenerating system with NADP+; format: ADME, cell-free; conditions: 2 h
[6] = target: T2, Flavin-containing monooxygenase 3 (Homo sapiens, UniProt P31513); experiment: as §2, with “FMO3” for “CYP2C19”, “baculovirus infected insect BTI-TN-5B1-4” for “human AHH-1”; format: ADME; conditions: 2 h
T2 sequence (P31513 whole entry): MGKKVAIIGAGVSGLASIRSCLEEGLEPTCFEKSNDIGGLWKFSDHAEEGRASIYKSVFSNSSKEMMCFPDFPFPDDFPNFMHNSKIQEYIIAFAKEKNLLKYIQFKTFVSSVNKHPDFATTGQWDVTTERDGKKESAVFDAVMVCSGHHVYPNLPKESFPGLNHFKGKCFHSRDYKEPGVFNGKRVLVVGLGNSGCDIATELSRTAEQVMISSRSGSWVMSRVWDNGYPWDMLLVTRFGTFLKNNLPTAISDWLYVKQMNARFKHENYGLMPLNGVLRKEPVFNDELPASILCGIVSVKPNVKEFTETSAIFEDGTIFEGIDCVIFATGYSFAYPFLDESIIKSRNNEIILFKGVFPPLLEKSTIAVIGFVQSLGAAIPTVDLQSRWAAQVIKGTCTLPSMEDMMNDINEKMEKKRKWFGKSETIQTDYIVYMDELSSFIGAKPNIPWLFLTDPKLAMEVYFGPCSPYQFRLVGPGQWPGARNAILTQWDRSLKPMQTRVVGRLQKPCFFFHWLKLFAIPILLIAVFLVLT

[7] = system: Liver microsome; experiment: Drug metabolism in phenotyped human liver microsomes assessed as formation of 1-(2-(2,4-dimethylphenylsulfinyl)phenyl)piperazine at 8 to 50 uM after 60 mins by HPLC/MS-MS analysis in presence of NADPH regenerating system with NADP+; format: ADME; conditions: 1 h
[8] = target: T2, Flavin-containing monooxygenase 3; experiment: as §1, with “FMO3” for “CYP2A6”, “baculovirus infected insect BTI-TN-5B1-4” for “human AHH-1”; format: ADME; conditions: 2 h
[9] = system: Liver microsome; experiment: Drug metabolism in pooled human liver microsomes assessed as formation of 1-(2-(2,4-dimethylphenylsulfinyl)phenyl)piperazine at 100 uM after 30 to 180 mins by HPLC/MS-MS analysis in presence of NADPH regenerating system with NADP+; format: ADME
[10] = system: Liver microsome; experiment: Drug metabolism in pooled human liver microsomes assessed as formation of 3-(2,4-dimethylphenylthio)-4-(piperazin-1-yl)phenol at 100 uM after 30 to 180 mins by HPLC/MS-MS analysis in presence of NADPH regenerating system with NADP+; format: ADME
[11] = target: Cytochrome P450 2C9 (Homo sapiens, UniProt P11712); experiment: Activity of human recombinant CYP2C9 expressed in microsomes isolated from human AHH-1 cells assessed as enzyme-mediated (3-methyl-4-(2-(piperazin-1-yl)phenylthio)phenyl)methanol formation at 8 to 50 uM after 120 mins by HPLC/MS-MS analysis in presence of NADPH regenerating system with NADP+; format: ADME, cell-free; conditions: 2 h
Sequence of Cytochrome P450 2C9 (P11712 whole entry): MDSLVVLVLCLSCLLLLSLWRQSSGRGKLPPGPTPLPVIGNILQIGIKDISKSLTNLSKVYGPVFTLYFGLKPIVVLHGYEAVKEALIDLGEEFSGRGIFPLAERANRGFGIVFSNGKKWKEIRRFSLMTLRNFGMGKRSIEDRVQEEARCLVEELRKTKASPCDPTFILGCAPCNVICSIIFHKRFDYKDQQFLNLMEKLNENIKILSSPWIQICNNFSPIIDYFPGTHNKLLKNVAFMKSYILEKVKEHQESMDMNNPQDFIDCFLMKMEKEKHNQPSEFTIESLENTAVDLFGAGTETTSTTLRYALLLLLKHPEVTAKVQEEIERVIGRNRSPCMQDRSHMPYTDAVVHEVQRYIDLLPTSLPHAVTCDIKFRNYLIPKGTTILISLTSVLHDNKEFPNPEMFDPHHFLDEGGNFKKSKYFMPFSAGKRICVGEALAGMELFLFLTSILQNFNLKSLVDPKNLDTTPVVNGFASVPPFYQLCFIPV

Sequence of Cytochrome P450 2C19 (P33261 whole entry): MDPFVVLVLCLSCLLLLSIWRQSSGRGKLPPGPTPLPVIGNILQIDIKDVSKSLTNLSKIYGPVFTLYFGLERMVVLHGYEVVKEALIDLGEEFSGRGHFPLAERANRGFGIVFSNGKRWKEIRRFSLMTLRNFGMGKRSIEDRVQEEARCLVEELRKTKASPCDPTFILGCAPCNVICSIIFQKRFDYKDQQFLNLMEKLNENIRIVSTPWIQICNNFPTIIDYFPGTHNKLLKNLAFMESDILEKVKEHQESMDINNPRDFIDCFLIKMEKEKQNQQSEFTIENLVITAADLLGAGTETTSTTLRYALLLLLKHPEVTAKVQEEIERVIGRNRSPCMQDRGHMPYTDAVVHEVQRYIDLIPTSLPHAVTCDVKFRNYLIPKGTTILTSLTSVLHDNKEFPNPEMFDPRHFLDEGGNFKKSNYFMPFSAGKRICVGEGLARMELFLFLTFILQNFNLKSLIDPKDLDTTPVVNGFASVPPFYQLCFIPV
Sequence of Cytochrome P450 3A4 (P08684 whole entry): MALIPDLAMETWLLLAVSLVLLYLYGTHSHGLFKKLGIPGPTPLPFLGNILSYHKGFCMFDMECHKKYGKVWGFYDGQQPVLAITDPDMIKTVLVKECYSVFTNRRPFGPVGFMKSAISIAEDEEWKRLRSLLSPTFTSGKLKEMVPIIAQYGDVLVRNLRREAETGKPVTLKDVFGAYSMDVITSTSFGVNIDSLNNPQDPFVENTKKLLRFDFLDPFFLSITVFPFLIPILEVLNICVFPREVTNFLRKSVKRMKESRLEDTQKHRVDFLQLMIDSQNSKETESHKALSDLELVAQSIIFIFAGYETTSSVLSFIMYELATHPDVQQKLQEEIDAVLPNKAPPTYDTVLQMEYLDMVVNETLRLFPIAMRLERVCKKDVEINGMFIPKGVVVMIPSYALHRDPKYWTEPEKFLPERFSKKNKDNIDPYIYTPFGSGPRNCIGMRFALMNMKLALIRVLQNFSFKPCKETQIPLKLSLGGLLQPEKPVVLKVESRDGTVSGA

Q: With `Br.Cc1ccc(Sc2ccccc2N2CCNCC2)c(C)c1` [VORTIOXETINE HYDROBROMIDE] as the compound, how does the Drug metabolism [1] read?
A: metabolite_detected

Q: And the “Vmax(app)” value [2]?
A: 262 pmol/min

Q: And the “Vmax(app)” value [3]?
A: >= 227 pmol/min

Q: And the Drug metabolism [4]?
A: metabolite_detected

Q: And the Drug metabolism [5]?
A: metabolite_not_detected

Q: And the Drug metabolism [6]?
A: metabolite_not_detected

Q: And the Drug metabolism [7]?
A: metabolite_detected

Q: What about the Drug metabolism [8] of the same compound?
A: metabolite_not_detected

Q: And the Drug metabolism [9]?
A: metabolite_detected

Q: And the Drug metabolism [10]?
A: metabolite_detected

Q: What about the Drug metabolism [11] of the same compound?
A: metabolite_detected
